# Laboratory results taken from ChEMBL document CHEMBL1124001, “Synthesis and antileukemic activity of bis[[(carbamoyl)oxy]methyl]- substituted pyrrolo[2,1-a]isoquinolines, pyrrolo[1,2-a]quinolines, pyrrolo[2,1-a]isobenzazepines, and pyrrolo[1,2-a]benzazepines” (J Med Chem, 1988).
# Assays:
# [1] = tested on: Mus musculus; assay: Ratio of treated to that of untreated tumor-bearing control animals at 2.5 mg/kg intraperitoneally in CD2F1 mice was determined; type: functional; details: route intraperitoneal
# [2] = tested on: Mus musculus; assay: Ratio of treated to that of untreated tumor-bearing control animals at 10 mg/kg intraperitoneally in CD2F1 mice was determined; type: functional; details: route intraperitoneal
# [3] = tested on: Mus musculus; assay: Body weight change of test animals to that of control was determined after injection at 5 mg/kg intraperitoneally in CD2F1 mice; type: functional; details: route intraperitoneal
# [4] = tested on: Mus musculus; assay: (§1) Body weight change of test animals to that of control was determined after injection at 2.5 mg/kg intraperitoneally in CD2F1 mice; type: ADME, organism-based; design: dose 2.5 mg/kg, route intraperitoneal; details: in vivo, ip
# [5] = tested on: Mus musculus; assay: Body weight change of test animals to that of control was determined after injection at 10 mg/kg intraperitoneally in CD2F1 mice; type: functional; details: route intraperitoneal
# [6] = tested on: Mus musculus; assay: as §1; type: functional; details: route intraperitoneal
# [7] = tested on: Mus musculus; assay: Net log cell kill was determined after injecting 2.5 mg/kg intraperitoneally in CD2F1 mice; type: functional; details: route intraperitoneal
# [8] = tested on: Mus musculus; assay: Ratio of treated to that of untreated tumor-bearing control animals at 5 mg/kg intraperitoneally in CD2F1 mice was determined; type: functional; details: route intraperitoneal
# [9] = tested on: Mus musculus; assay: Body weight change of test animals to that of control was determined after injection at 20 mg/kg intraperitoneally in CD2F1 mice; type: functional; details: route intraperitoneal
# [10] = tested on: Mus musculus; assay: Toxicity day survivors was determined by the ratio of animals survived to that of test animals at 5 mg/kg intraperitoneally in CD2F1 mice; 6/6; type: organism-based; design: dose 5 mg/kg, route intraperitoneal; details: in vivo, ip
# [11] = tested on: Mus musculus; assay: Toxicity day survivors was determined by the ratio of animals survived to that of test animals at 20 mg/kg intraperitoneally in CD2F1 mice; 6/6; type: organism-based; design: dose 20 mg/kg, route intraperitoneal; details: in vivo, ip
# [12] = tested on: Mus musculus; assay: Net log cell kill was determined after injecting 10 mg/kg intraperitoneally in CD2F1 mice; type: functional; details: route intraperitoneal
# [13] = tested on: Mus musculus; assay: Net log cell kill was determined after injecting 5 mg/kg intraperitoneally in CD2F1 mice; type: functional; details: route intraperitoneal
# [14] = tested on: Mus musculus; assay: Toxicity day survivors was determined by the ratio of animals survived to that of test animals at 40 mg/kg intraperitoneally in CD2F1 mice; 0/6; type: organism-based; design: dose 40 mg/kg, route intraperitoneal; details: in vivo, ip
# [15] = tested on: Mus musculus; assay: Toxicity day survivors was determined by the ratio of animals survived to that of test animals at 10 mg/kg intraperitoneally in CD2F1 mice; 6/6; type: organism-based; design: dose 10 mg/kg, route intraperitoneal; details: in vivo, ip
# [16] = tested on: Mus musculus; assay: Toxicity day survivors was determined by the ratio of animals survived to that of test animals at 2.5 mg/kg intraperitoneally in CD2F1 mice; 6/6; type: organism-based; design: dose 2.5 mg/kg, route intraperitoneal; details: in vivo, ip
# [17] = tested on: Mus musculus; assay: Body weight change of test animals to that of control was determined after injection at 3.16 mg/kg intraperitoneally in CD2F1 mice; type: functional; details: route intraperitoneal
# [18] = tested on: Mus musculus; assay: Toxicity day survivors was determined by the ratio of animals survived to that of test animals at 50 mg/kg intraperitoneally in CD2F1 mice; 6/6; type: organism-based; design: dose 50 mg/kg, route intraperitoneal; details: in vivo, ip
# [19] = tested on: Mus musculus; assay: Net log cell kill was determined after injecting 3.16 mg/kg intraperitoneally in CD2F1 mice; type: functional; details: route intraperitoneal
# [20] = tested on: Mus musculus; assay: Body weight change of test animals to that of control was determined after injection at 12.5 mg/kg intraperitoneally in CD2F1 mice; type: functional; details: route intraperitoneal
# [21] = tested on: Mus musculus; assay: Toxicity day survivors was determined by the ratio of animals survived to that of test animals at 25 mg/kg intraperitoneally in CD2F1 mice; 6/6; type: organism-based; design: dose 25 mg/kg, route intraperitoneal; details: in vivo, ip
# [22] = tested on: Mus musculus; assay: Toxicity day survivors was determined by the ratio of animals survived to that of test animals at 3.16 mg/kg intraperitoneally in CD2F1 mice; 6/6; type: organism-based; design: dose 3.16 mg/kg, route intraperitoneal; details: in vivo, ip
# [23] = tested on: Mus musculus; assay: Toxicity day survivors was determined by the ratio of animals survived to that of test animals at 12.5 mg/kg intraperitoneally in CD2F1 mice; 6/6; type: organism-based; design: dose 12.5 mg/kg, route intraperitoneal; details: in vivo, ip
# [24] = tested on: Mus musculus; assay: Toxicity day survivors was determined by the ratio of animals survived to that of test animals at 6.25 mg/kg intraperitoneally in CD2F1 mice; 6/6; type: organism-based; design: dose 6.25 mg/kg, route intraperitoneal; details: in vivo, ip
# [25] = tested on: Mus musculus; assay: Ratio of treated to that of untreated tumor-bearing control animals at 12.5 mg/kg intraperitoneally in CD2F1 mice was determined; type: functional; details: route intraperitoneal
# [26] = tested on: Mus musculus; assay: Net log cell kill was determined after injecting 12.5 mg/kg intraperitoneally in CD2F1 mice; type: functional; details: route intraperitoneal
# [27] = tested on: Mus musculus; assay: Body weight change of test animals to that of control was determined after injection at 100 mg/kg intraperitoneally in CD2F1 mice; type: functional; details: route intraperitoneal
# [28] = tested on: Mus musculus; assay: Ratio of treated to that of untreated tumor-bearing control animals at 3.16 mg/kg intraperitoneally in CD2F1 mice was determined; type: functional; details: route intraperitoneal
# [29] = tested on: Mus musculus; assay: Body weight change of test animals to that of control was determined after injection at 25 mg/kg intraperitoneally in CD2F1 mice; type: functional; details: route intraperitoneal
# [30] = tested on: Mus musculus; assay: Net log cell kill was determined after injecting 25 mg/kg intraperitoneally in CD2F1 mice; type: functional; details: route intraperitoneal
# [31] = tested on: Mus musculus; assay: Body weight change of test animals to that of control was determined after injection at 50 mg/kg intraperitoneally in CD2F1 mice; type: functional; details: route intraperitoneal
# [32] = tested on: Mus musculus; assay: Body weight change of test animals to that of control was determined after injection at 6.25 mg/kg intraperitoneally in CD2F1 mice; type: functional; details: route intraperitoneal
# [33] = tested on: Mus musculus; assay: Ratio of treated to that of untreated tumor-bearing control animals at 6.25 mg/kg intraperitoneally in CD2F1 mice was determined; type: functional; details: route intraperitoneal
# [34] = tested on: Mus musculus; assay: Ratio of treated to that of untreated tumor-bearing control animals at 25 mg/kg intraperitoneally in CD2F1 mice was determined; type: functional; details: route intraperitoneal
# [35] = tested on: Mus musculus; assay: Net log cell kill was determined after injecting 6.25 mg/kg intraperitoneally in CD2F1 mice; type: functional; details: route intraperitoneal
# [36] = tested on: Mus musculus; assay: Toxicity day survivors was determined by the ratio of animals survived to that of test animals at 100 mg/kg intraperitoneally in CD2F1 mice; 3/6; type: organism-based; design: dose 100 mg/kg, route intraperitoneal; details: in vivo, ip
compound,measurement,setting,value
CNC(=O)OCc1c(COC(=O)NC)c2n(c1C)-c1ccccc1CCC2,T/C,[1],154%
same,T/C,[2],152%
same,T-C,[3],-0.9 g
same,TDS,[4],6
same,T-C,[5],-2.2 g
same,T-C,[6],-1.7 g
same,KE,[7],1.19
same,T/C,[8],147%
same,T-C,[9],-2.6 g
same,TDS,[10],6
same,TDS,[11],6
same,KE,[12],1
same,KE,[13],0.55
same,TDS,[14],0
same,TDS,[15],6
same,TDS,[16],6
COc1ccc2c(c1)CCn1c(C)c(COC(=O)NC(C)C)c(COC(=O)NC(C)C)c1-2,T-C,[17],-1.1 g
same,TDS,[18],6
same,KE,[19],-1.43
same,T-C,[20],-3 g
same,TDS,[21],6
same,TDS,[22],6
same,TDS,[23],6
same,TDS,[24],6
same,T/C,[25],153%
same,KE,[26],-1.29
same,T-C,[27],-5.3 g
same,T/C,[28],142%
same,T-C,[29],-5.6 g
same,KE,[30],-1.29
same,T-C,[31],-6.6 g
same,T-C,[32],-2.1 g
same,T/C,[33],136%
same,T/C,[34],153%
same,KE,[35],-1.51
same,TDS,[36],3
